# Measurements published in patent US20230203063A1, “TRICYCLIC PYRIDONES AND PYRIMIDONES” (Erasca, Inc., priority 2019, published 2023).
# Molecular target: T1, mutant G12C K-RAS (Homo sapiens, UniProt P01116, G12C)
# T1 construct: made in house; host or cells: E. coli BL21
# Assay: covalent adduct formation (CAF) with mutant G12C K-RAS
# Assay type: binding
# Design: covalent adduct formation (CAF): unit not given here
# Conditions: Table 1; 10 micromolar, after 60 minutes
# Experimental: Embodiments disclosed herein are further illustrated by the following examples in Tables 1-4 and the Examples hereinbelow. The Tables indicate the compound number, structure, the observed mass spectral molecular weight peak, and covalent adduct formation (CAF) with a mutant G12C K-RAS after 60 minutes at a concentration of 10 micromolar.
row,% CAF(60 min) [%],SMILES
1,42.5,"C=CC(=O)N1CC2(CCN(c3nc(=O)n4c5c(c(-c6c(O)cccc6F)c(Cl)cc35)OCC4)CC2)C1 [Example 2, 7-(2-acryloyl-2,7-diazaspiro[3.5]nonan-7-yl)-9-chloro-10-(2-fluoro-6-hydroxyphenyl)-2H-[1,4]oxazino[2,3,4-ij]quinazolin-5(3H)-one]"

# Same assay, conditions: Table 6; 10 uM, 1 h
row,"% CAF @ 10 uM, 1 h [%]",SMILES
1,3,"C=CC(=O)N1C[C@H](C)N(c2nc(=O)n3c4c(c(-c5c(O)cccc5F)c(Cl)cc24)OC[C@@H]3CN(C)CC(F)(F)F)C[C@H]1C (atropisomer, axis not shown) [Example 239, (3S,10R)-7-((2S,5R)-4-acryloyl-2,5-dimethylpiperazin-1-yl)-9-chloro-10-(2-fluoro-6-hydroxyphen-yl)-3-((methyl(2,2,2-trifluoroethyl)amino)-methyl)-2H-[1,4]-oxazino[2,3,4-ij]-quinazolin-5(3H)-one]"
2,0,"C=CC(=O)N1C[C@H](C)N(c2nc(=O)n3c4c(c(-c5c(F)ccc6[nH]nnc56)ccc24)OCC3)C[C@H]1C [Example 223, 7-((2S,5R)-4-acryloyl-2,5-dimethylpiperazin-1-yl)-10-(5-fluoro-1H-benzo[d][1,2,3]triazol-4-yl)-2,3-dihydro-5H-[1,4]oxazino[2,3,4-ij]quinazolin-5-one]"

# Same assay, conditions: Table 7; 10 micromolar, after 60 minutes
row,SMILES,covalent adduct formation (CAF)
1,"C=CC(=O)N1CCN(c2nc(=O)n3c4c(c(-c5c(F)cc(F)cc5F)c(Cl)cc24)SC[C@H]3COC)[C@@H](C)C1 [Example 137, (R)-7-((S)-4-acryloyl-2-methylpiperazin-1-yl)-9-chloro-3-(methoxymethyl)-10-(2,4,6-trifluorophenyl)-2,3-dihydro-5H-[1,4]thiazino[2,3,4-ij]quinazolin-5-one]",86.8
2,"C=CC(=O)N1CCN(c2nc(=O)n3c4c(c(-c5ccc(F)cc5F)c(Cl)cc24)SC(C)(C)C3)[C@@H](C)C1 [Example 76, 7-((S)-4-acryloyl-2-methylpiperazin-1-yl)-9-chloro-10-(2,4-difluorophenyl)-2,2-dimethyl-2,3-dihydro-5H-[1,4]thiazino[2,3,4-ij]quinazolin-5-one]",86.8
3,"C=CC(=O)N1CCN(c2nc(=O)n3c4c(c(-c5ccc(F)cc5F)c(Cl)cc24)SC[C@H]3COC)[C@@H](C)C1 [Example 130, (3R)-7-((S)-4-acryloyl-2-methylpiperazin-1-yl)-9-chloro-10-(2,4-difluorophenyl)-3-(methoxymethyl)-2,3-dihydro-5H-[1,4]thiazino[2,3,4-ij]quinazolin-5-one]",94.5

# Further lines, results first:
row,covalent adduct formation (CAF),SMILES
1,94.7,"C=CC(=O)N1CCN(c2nc(=O)n3c4c(c(-c5ccc(F)cc5F)c(Cl)cc24)SC[C@@H]3CCCN2C[C@@H]3C[C@H]2CO3)[C@@H](C)C1 [Example 342, (3S)-3-(3-((1S,4S)-2-oxa-5-azabicyclo [2.2.1]heptan-5-yl)-propyl)-7-((S)-4-acryloyl-2-methyl-piperazin-1-yl)-9-chloro-10-(2,4-difluorophenyl)-2H-[1,4]thiazino[2,3,4-ij]-quinazolin-5(3H)-one]"
2,82.4,"C=CC(=O)N1CCN(c2nc(=O)n3c4c(c(-c5ccc(F)cc5F)c(Cl)cc24)SC[C@H]3CC2CCN(C)CC2)[C@@H](C)C1 [Example 345, (3R)-7-((S)-4-acryloyl-2-methylpiperazin-1-yl)-9-chloro-10-(2,4-difluorophenyl)-3-((1-methylpiperidin-4-yl)-methyl)-2H-[1,4]-thiazino-[2,3,4-ij]-quinazolin-5(3H)-one]"
3,79.3,"C=CC(=O)N1CCN(c2nc(=O)n3c4c(c(-c5ccc(F)cc5F)c(Cl)cc24)SC[C@H]3CN2CCN(CC)CC2)[C@@H](C)C1 [Example 346, (3R)-7-((S)-4-acryloyl-2-methylpiperazin-1-yl)-9-chloro-10-(2,4-difluorophenyl)-3-((4-ethylpiperazin-1-yl)-methyl)-2H-[1,4]-thiazino[2,3,4-ij]-quinazolin-5(3H)-one]"
